Test results taken from article PMC4685510, “A Cell Biologist’s Field Guide to Aurora Kinase Inhibitors” (Frontiers in Oncology, 2015).

Assays:
Assay in all cases: biochemical
Format in all cases: biochemical
[1] = biological target: 363 human kinases (including Aurora A/B/C) (Homo sapiens, UniProt P22607); conditions: FGFR3, [ATP] 30 µM; for remaining activity at 0.1 µM: 100 nM; for remaining activity at 0.1 µM / remaining activity at 0.5 µM: read-out: % Enzyme Activity (relative to DMSO controls)
Text: (§1) However, the Aurora A/B selectivity ratios derived from our in vitro and in vivo data can be compared to prioritize inhibitors.

[2] = biological target: 363 human kinases (including Aurora A/B/C) (Homo sapiens, UniProt Q96RG2); conditions: PASK; for remaining activity at 0.1 µM: 100 nM; for remaining activity at 0.1 µM / remaining activity at 0.5 µM: read-out: % Enzyme Activity (relative to DMSO controls)
Text: as §1

[3] = biological target: 363 human kinases (including Aurora A/B/C) (Homo sapiens, UniProt P78368); conditions: CK1g2, [ATP] 100 µM; for remaining activity at 0.1 µM: 100 nM; for remaining activity at 0.1 µM / remaining activity at 0.5 µM: read-out: % Enzyme Activity (relative to DMSO controls)
Text: as §1

[4] = biological target: 363 human kinases (including Aurora A/B/C) (Homo sapiens, UniProt Q15349); conditions: RSK3; for remaining activity at 0.1 µM: 100 nM; for remaining activity at 0.1 µM / remaining activity at 0.5 µM: read-out: % Enzyme Activity (relative to DMSO controls)
Text: as §1

[5] = biological target: T1, 363 human kinases (including Aurora A/B/C) (Homo sapiens, UniProt P35626); conditions: GRK3; for remaining activity at 0.1 µM: 100 nM; for remaining activity at 0.1 µM / remaining activity at 0.5 µM: read-out: % Enzyme Activity (relative to DMSO controls)
T1 sequence (P35626 1-688): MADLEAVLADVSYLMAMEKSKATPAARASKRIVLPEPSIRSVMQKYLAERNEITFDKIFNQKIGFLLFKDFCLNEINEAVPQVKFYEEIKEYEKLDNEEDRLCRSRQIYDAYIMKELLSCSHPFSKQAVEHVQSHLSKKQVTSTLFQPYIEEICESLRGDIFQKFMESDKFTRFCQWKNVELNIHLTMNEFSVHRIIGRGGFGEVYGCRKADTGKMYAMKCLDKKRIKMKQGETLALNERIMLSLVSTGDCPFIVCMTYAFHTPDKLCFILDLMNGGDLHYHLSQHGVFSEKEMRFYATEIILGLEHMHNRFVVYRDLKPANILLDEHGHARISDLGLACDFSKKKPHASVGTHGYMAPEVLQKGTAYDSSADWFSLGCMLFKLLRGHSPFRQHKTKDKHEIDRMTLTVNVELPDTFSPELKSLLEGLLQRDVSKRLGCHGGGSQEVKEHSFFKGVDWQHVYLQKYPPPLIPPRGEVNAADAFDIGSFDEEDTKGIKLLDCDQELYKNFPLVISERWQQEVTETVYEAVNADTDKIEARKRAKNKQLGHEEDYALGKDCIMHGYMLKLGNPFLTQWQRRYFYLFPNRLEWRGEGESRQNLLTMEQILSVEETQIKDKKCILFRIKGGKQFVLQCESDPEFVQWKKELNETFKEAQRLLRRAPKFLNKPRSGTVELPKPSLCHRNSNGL
Text: as §1

[6] = biological target: 363 human kinases (including Aurora A/B/C) (Homo sapiens, UniProt Q9UK32); conditions: RSK4; for remaining activity at 0.1 µM: 100 nM; for remaining activity at 0.1 µM / remaining activity at 0.5 µM: read-out: % Enzyme Activity (relative to DMSO controls)
Text: as §1

[7] = biological target: 363 human kinases (including Aurora A/B/C) (Homo sapiens, UniProt Q8IU85); conditions: CAMK1d, [ATP] 2.5 µM; for remaining activity at 0.1 µM: 100 nM; for remaining activity at 0.1 µM / remaining activity at 0.5 µM: read-out: % Enzyme Activity (relative to DMSO controls)
Text: as §1

[8] = biological target: T2, 363 human kinases (including Aurora A/B/C) (Homo sapiens, UniProt Q96L34); conditions: MARK4; for remaining activity at 0.1 µM: 100 nM; for remaining activity at 0.1 µM / remaining activity at 0.5 µM: read-out: % Enzyme Activity (relative to DMSO controls)
T2 sequence (Q96L34 1-752): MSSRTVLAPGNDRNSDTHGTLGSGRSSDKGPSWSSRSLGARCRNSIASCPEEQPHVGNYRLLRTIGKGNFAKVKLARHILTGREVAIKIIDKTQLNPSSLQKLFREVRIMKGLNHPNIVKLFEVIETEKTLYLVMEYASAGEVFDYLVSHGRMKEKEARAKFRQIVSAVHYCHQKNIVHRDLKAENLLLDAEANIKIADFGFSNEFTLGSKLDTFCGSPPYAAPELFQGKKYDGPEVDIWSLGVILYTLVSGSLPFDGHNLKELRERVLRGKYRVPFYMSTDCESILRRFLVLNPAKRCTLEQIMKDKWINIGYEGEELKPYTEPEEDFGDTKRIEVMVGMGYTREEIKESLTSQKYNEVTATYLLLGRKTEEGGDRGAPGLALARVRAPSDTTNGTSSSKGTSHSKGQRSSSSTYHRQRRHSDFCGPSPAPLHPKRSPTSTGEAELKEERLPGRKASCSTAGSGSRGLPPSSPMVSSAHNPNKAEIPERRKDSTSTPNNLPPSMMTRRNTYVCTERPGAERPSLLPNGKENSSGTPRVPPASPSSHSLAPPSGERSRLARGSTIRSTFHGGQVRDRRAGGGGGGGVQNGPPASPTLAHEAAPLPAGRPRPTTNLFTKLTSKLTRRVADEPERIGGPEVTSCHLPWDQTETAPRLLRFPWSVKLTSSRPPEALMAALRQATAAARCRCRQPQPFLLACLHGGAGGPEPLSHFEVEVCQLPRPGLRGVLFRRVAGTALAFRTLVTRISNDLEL
Text: as §1

[9] = biological target: 363 human kinases (including Aurora A/B/C) (Homo sapiens, UniProt P51617); conditions: IRAK1; for remaining activity at 0.1 µM: 100 nM; for remaining activity at 0.1 µM / remaining activity at 0.5 µM: read-out: % Enzyme Activity (relative to DMSO controls)
Text: as §1

[10] = biological target: 363 human kinases (including Aurora A/B/C) (Homo sapiens, UniProt P45984); conditions: JNK2; for remaining activity at 0.1 µM: 100 nM; for remaining activity at 0.1 µM / remaining activity at 0.5 µM: read-out: % Enzyme Activity (relative to DMSO controls)
363 human kinases (including Aurora A/B/C) (Homo sapiens, UniProt P45984), sequence (P45984 whole entry): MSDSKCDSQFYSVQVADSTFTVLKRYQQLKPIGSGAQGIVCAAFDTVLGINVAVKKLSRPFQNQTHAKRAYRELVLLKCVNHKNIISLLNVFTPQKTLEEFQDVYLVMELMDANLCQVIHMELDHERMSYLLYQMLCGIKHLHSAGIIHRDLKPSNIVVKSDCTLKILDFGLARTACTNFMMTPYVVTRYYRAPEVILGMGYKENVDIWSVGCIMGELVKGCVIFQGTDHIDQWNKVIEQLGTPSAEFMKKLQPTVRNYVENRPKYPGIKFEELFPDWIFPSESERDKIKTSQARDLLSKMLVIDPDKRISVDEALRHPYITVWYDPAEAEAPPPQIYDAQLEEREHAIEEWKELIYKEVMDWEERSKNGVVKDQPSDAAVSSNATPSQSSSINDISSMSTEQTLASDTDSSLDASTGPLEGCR
Text: as §1

363 human kinases (including Aurora A/B/C) (Homo sapiens, UniProt Q96RG2), sequence (Q96RG2 whole entry): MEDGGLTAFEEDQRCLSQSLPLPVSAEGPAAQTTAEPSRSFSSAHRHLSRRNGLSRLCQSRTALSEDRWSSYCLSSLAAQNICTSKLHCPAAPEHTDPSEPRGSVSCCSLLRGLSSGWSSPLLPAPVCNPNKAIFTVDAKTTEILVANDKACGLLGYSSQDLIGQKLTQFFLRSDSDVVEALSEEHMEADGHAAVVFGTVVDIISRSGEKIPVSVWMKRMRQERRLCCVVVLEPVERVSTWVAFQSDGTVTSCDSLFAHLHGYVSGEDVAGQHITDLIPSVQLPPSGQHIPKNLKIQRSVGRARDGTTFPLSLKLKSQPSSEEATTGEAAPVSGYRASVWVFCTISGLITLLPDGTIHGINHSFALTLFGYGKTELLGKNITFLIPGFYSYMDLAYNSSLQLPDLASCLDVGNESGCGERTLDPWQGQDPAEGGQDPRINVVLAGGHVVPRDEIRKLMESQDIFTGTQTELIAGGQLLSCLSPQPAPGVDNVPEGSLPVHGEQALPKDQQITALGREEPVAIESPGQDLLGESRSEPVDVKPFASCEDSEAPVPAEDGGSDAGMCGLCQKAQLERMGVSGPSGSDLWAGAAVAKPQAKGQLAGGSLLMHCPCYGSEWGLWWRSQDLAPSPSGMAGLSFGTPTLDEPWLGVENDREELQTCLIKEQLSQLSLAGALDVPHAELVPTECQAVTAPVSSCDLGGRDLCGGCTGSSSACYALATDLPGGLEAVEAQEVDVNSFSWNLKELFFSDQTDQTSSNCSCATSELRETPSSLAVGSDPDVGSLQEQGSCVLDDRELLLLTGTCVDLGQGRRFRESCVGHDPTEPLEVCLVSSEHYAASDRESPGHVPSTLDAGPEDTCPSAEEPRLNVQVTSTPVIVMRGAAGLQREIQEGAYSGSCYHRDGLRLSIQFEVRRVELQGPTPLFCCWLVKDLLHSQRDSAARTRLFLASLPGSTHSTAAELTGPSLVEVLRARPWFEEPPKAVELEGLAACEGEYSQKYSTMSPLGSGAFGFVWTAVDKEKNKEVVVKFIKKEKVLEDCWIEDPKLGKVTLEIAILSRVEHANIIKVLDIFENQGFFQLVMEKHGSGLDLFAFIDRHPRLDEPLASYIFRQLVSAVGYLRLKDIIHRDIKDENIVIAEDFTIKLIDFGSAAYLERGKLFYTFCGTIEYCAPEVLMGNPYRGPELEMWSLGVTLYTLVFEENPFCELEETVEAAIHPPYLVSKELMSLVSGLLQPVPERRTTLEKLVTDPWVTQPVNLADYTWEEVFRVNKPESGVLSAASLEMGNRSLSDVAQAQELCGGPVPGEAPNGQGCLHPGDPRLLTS
363 human kinases (including Aurora A/B/C) (Homo sapiens, UniProt Q15349), sequence (Q15349 whole entry): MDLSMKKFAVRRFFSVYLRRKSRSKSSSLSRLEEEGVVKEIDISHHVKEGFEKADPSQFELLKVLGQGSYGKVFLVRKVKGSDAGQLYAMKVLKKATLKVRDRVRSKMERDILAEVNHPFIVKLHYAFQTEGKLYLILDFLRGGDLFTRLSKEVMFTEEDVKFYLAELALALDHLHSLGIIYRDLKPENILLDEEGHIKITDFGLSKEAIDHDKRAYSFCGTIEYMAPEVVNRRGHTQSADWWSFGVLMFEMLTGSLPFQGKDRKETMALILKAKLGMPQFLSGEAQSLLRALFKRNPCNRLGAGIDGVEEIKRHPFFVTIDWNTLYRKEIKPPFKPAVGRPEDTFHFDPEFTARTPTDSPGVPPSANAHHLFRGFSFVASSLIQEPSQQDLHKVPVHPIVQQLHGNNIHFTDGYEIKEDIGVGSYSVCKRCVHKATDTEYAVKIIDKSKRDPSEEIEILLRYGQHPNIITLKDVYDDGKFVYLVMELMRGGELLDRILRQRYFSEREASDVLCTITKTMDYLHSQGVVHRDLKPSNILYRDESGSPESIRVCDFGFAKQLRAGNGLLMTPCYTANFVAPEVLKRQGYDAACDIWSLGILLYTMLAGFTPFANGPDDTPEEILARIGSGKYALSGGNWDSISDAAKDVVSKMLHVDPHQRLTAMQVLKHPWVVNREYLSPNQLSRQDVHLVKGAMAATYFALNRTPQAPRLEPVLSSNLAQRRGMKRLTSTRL
363 human kinases (including Aurora A/B/C) (Homo sapiens, UniProt P22607), sequence (P22607 23-806): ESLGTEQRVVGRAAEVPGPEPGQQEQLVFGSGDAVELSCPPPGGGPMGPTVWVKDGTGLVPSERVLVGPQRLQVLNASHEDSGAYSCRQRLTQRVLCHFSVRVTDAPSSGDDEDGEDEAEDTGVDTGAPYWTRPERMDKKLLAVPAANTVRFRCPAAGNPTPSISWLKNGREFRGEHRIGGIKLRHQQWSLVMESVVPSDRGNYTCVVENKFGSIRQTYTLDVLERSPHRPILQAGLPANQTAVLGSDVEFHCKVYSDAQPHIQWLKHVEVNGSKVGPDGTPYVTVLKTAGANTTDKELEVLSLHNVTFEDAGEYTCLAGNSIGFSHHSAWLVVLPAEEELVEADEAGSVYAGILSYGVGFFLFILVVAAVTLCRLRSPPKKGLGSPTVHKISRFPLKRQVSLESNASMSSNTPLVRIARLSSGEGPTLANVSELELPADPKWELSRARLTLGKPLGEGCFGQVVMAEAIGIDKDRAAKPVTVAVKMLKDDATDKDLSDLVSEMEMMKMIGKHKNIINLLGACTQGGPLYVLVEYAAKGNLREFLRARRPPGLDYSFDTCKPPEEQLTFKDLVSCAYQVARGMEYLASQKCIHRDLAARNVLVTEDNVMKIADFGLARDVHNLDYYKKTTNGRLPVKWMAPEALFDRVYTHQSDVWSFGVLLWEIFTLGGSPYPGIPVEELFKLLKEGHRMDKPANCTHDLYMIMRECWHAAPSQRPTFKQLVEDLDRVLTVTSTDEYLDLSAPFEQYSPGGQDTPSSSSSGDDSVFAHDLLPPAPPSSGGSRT
363 human kinases (including Aurora A/B/C) (Homo sapiens, UniProt Q9UK32), sequence (Q9UK32 whole entry): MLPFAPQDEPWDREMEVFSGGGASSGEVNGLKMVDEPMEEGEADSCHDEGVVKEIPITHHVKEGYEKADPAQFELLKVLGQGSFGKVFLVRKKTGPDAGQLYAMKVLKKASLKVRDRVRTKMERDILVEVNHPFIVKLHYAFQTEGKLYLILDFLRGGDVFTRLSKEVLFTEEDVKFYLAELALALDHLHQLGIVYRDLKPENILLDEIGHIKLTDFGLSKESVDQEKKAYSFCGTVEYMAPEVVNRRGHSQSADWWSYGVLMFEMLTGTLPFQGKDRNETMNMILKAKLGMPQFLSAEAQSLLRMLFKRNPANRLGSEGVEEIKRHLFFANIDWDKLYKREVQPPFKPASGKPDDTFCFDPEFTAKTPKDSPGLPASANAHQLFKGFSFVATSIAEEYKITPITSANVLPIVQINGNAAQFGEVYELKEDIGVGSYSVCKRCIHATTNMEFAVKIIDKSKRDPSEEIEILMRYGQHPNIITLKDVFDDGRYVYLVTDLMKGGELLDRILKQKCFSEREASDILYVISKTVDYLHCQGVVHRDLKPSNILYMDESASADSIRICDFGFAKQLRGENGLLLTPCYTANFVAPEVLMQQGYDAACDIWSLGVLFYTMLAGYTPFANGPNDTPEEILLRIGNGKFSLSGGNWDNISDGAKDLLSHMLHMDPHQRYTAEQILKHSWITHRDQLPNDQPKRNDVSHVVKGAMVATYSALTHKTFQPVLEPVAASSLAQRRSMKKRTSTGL
363 human kinases (including Aurora A/B/C) (Homo sapiens, UniProt Q8IU85), sequence (Q8IU85 whole entry): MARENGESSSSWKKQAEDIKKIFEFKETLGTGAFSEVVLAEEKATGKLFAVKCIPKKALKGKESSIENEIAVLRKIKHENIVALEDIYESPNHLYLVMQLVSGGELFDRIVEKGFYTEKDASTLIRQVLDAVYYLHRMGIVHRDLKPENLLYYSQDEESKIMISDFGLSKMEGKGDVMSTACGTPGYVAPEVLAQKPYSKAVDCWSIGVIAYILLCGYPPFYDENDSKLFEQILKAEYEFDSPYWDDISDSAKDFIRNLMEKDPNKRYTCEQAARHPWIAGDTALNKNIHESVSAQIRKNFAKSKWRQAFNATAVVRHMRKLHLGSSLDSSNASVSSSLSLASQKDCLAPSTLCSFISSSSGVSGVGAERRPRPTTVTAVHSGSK
363 human kinases (including Aurora A/B/C) (Homo sapiens, UniProt P78368), sequence (P78368 whole entry): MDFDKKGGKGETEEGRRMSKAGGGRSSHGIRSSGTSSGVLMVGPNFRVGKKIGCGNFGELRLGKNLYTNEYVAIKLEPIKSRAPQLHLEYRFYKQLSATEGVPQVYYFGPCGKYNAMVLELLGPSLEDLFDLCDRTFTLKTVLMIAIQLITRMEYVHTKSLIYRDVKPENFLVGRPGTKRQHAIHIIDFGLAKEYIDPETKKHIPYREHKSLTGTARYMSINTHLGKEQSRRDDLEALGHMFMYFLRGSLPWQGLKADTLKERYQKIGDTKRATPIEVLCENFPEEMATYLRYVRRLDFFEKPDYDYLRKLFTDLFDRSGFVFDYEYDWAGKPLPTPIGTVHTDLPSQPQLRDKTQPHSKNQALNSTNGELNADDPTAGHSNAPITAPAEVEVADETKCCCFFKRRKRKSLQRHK

| SMILES | remaining activity at 0.1 µM [1] | remaining activity at 0.1 µM [2] | remaining activity at 0.1 µM [3] | remaining activity at 0.1 µM [4] | remaining activity at 0.1 µM [5] | remaining activity at 0.1 µM [6] | remaining activity at 0.1 µM [7] | remaining activity at 0.1 µM [8] | remaining activity at 0.1 µM [9] | remaining activity at 0.1 µM [10] | remaining activity at 0.5 µM ([1]; 500 nM) | remaining activity at 0.5 µM ([2]; 500 nM) | remaining activity at 0.5 µM ([3]; 500 nM) | remaining activity at 0.5 µM ([4]; 500 nM) | remaining activity at 0.5 µM ([5]; 500 nM) | remaining activity at 0.5 µM ([6]; 500 nM) | remaining activity at 0.5 µM ([7]; 500 nM) | remaining activity at 0.5 µM ([8]; 500 nM) | remaining activity at 0.5 µM ([9]; 500 nM) | remaining activity at 0.5 µM ([10]; 500 nM) | further results |
| --- | --- | --- | --- | --- | --- | --- | --- | --- | --- | --- | --- | --- | --- | --- | --- | --- | --- | --- | --- | --- | --- |
| CCn1cc(-c2ccnc3[nH]c(-c4cccc(CN(C)C)c4)cc23)c(-c2ccc(NC(=O)N(C)C)cc2)n1 [GSK1070916] | 63.8% | 102% | 89.5% | 95.2% | 98.2% | 93.6% | 111% | 111% | 122% | 94.7% | – | – | – | – | – | – | – | – | – | – | – |
| O=C(c1cccc(Cl)c1F)N1CCN(Cc2cccc(Nc3nccs3)n2)CC1 [MK-8745] | – | – | – | – | – | – | – | – | – | – | 95.9% | 103% | 87.5% | 99.9% | 101% | 97.1% | 114% | 105% | 19% | 49.7% | % Enzyme Activity (relative to DMSO controls) ([1]; 500 nM): 95.75%; % Enzyme Activity (relative to DMSO controls) ([2]; 500 nM): 101.46%; % Enzyme Activity (relative to DMSO controls) ([3]; 500 nM): 86.46%; % Enzyme Activity (relative to DMSO controls) ([4]; 500 nM): 96.48%; % Enzyme Activity (relative to DMSO controls) ([5]; 500 nM): 99.18%; % Enzyme Activity (relative to DMSO controls) ([6]; 500 nM): 94.73%; % Enzyme Activity (relative to DMSO controls) ([7]; 500 nM): 112.12%; % Enzyme Activity (relative to DMSO controls) ([8]; 500 nM): 102.33%; % Enzyme Activity (relative to DMSO controls) ([9]; 500 nM): 18.29%; % Enzyme Activity (relative to DMSO controls) ([10]; 500 nM): 49.53% |
| O=C(O)[C@]1(Cc2cccc(Nc3nccs3)n2)CC[C@@H](Oc2cccc(Cl)c2F)CC1 [MK-5108] | 64.9% | 100% | 107% | 101% | 101% | 94.2% | 94.4% | 106% | 5.35% | 95.7% | 31.5% | 104% | 80.2% | 89.7% | 101% | 90.1% | 114% | 101% | 1.01% | 86.7% | – |
